Assay results as given in patent US20250120951A1, “CLEMIZOLE FORMULATION” (EPYGENIX THERAPEUTICS, INC., priority 2021, published 2025).
“And” between values parts separate entries of the source, which are not always exact repeats. Equal values may be shown once. Where a name gives a salt, the structure may show the parent alone. Read-outs that look alike come from different tables or passages of the source.

How the values were obtained:
[1] = Solubility testing for clemizole HCl in solvent systems (Example 1); type: physicochemical
Description: Solubility testing for clemizole HCl in a compatible solvent system was conducted to identify a buffer system that solubilized the required concentration of clemizole HCl without any precipitation. […] Actual clemizole HCl solubility values in each of the solvent systems are described in Table 1.

[2] = Excipient compatibility: clemizole HCl assay and total related substances, 14 days at 50° C. (Example 4); type: physicochemical
Description: In an example, various excipients were examined at the 14-day time point (50° C.) to guide the decision on the choice of excipients to be used during formulation development. Table 5 below illustrates the stability of clemizole HCl at day 14 following incubation in the various formulations listed.
However, due to the poor solubility of ethyl parahydroxybenzoate, either a solubilizer such as PEG400, or a soluble form of ethyl parahydroxybenzoate, such as the sodium salt, would be required. Glycerol was compatible with clemizole HCl and may be used to improve the taste formulation.

## Clc1ccc(Cn2c(CN3CCCC3)nc3ccccc32)cc1 [clemizole HCl]
[1]; 0.1 M HCl, simulated gastric fluid, 0.1M HCl 100% w/w, read-out: Actual Solubility
  solubility: 11 mg/mL
[1]; Solutol HS15 solution, 40 °C, aqueous with cosolvent or surfactant or cyclodextrin, 20% w/w solution of Solutol HS15 at 40° C., read-out: solubility of clemizole HCl
  solubility: 36 mg/mL
[1]; citrate buffer, pH 4.5, aqueous buffer, pH 4.5 Citrate Buffer 100% w/w, read-out: Actual Solubility
  solubility: 12.7 mg/mL
[1]; citrate buffer, pH 4.5, aqueous with cosolvent or surfactant or cyclodextrin, pH 4.5 Citrate Buffer 79.5 / PEG400 20.0 / Sodium ascorbate 0.5 % w/w, read-out: Actual Solubility
  solubility: 9.29 mg/mL
[1]; citrate buffer, pH 4.5, aqueous with cosolvent or surfactant or cyclodextrin, pH 4.5 Citrate Buffer 80.0 / Glycerol 20.0 % w/w, read-out: Actual Solubility
  solubility: 13.5 mg/mL
[1]; citrate buffer, pH 4.5, aqueous with cosolvent or surfactant or cyclodextrin, pH 4.5 Citrate Buffer 80.0 / Propylene glycol 20.0 % w/w, read-out: Actual Solubility
  solubility: 11.4 mg/mL
[1]; citrate buffer, pH 4.5, aqueous with cosolvent or surfactant or cyclodextrin, pH 4.5 Citrate Buffer 90.0 / 2-Hydroxypropyl-β-cyclodextrin 10.0 % w/w, read-out: Actual Solubility
  solubility: 29.9 mg/mL
[1]; citrate buffer, pH 4.5, aqueous with cosolvent or surfactant or cyclodextrin, pH 4.5 Citrate Buffer 94.5 / Polysorbate 20 5.0 / Sodium ascorbate 0.5 % w/w, read-out: Actual Solubility
  solubility: 21.4 mg/mL
[1]; citrate buffer, pH 4.5, aqueous with cosolvent or surfactant or cyclodextrin, pH 4.5 Citrate Buffer 94.5 / Polysorbate 80 5.0 / Sodium ascorbate 0.5 % w/w, read-out: Actual Solubility
  solubility: 24.6 mg/mL
[1]; citrate buffer, pH 4.5, aqueous with cosolvent or surfactant or cyclodextrin, pH 4.5 Citrate Buffer 95.0 / Cremophor ELP 5.0 % w/w, read-out: Actual Solubility
  solubility: 19.1 mg/mL
[1]; citrate buffer, pH 4.5, aqueous with cosolvent or surfactant or cyclodextrin, pH 4.5 Citrate Buffer 95.0 / Cremophor RH40 5.0 % w/w, read-out: Actual Solubility
  solubility: 19.7 mg/mL
[1]; citrate buffer, pH 4.5, aqueous with cosolvent or surfactant or cyclodextrin, pH 4.5 Citrate Buffer 95.0 / Solutol HS15 5.0 % w/w, read-out: Actual Solubility
  solubility: 19.8 mg/mL
[1]; citrate buffer, pH 4.5, aqueous with cosolvent or surfactant or cyclodextrin, pH 4.5 Citrate Buffer 95.0 / TPGS 5.0 % w/w, read-out: Actual Solubility
  solubility: 25.9 mg/mL
[1]; freeze-thawing
  effect of freeze-thawing on clemizole HCl solubility: does not appear to reduce
[1]; phosphate buffer, pH 6.8, aqueous buffer, pH 6.8 Phosphate Buffer 100% w/w, read-out: Actual Solubility
  solubility: 0.06 mg/mL
[1]; phosphate buffer, pH 6.8, aqueous with cosolvent or surfactant or cyclodextrin, pH 6.8 Phosphate Buffer 79.5 / PEG400 20.0 / Sodium ascorbate 0.5 % w/w, read-out: Actual Solubility
  solubility: 0.28 mg/mL
[1]; phosphate buffer, pH 6.8, aqueous with cosolvent or surfactant or cyclodextrin, pH 6.8 Phosphate Buffer 80.0 / Glycerol 20.0 % w/w, read-out: Actual Solubility
  solubility: 0.07 mg/mL
[1]; phosphate buffer, pH 6.8, aqueous with cosolvent or surfactant or cyclodextrin, pH 6.8 Phosphate Buffer 80.0 / Propylene glycol 20.0 % w/w, read-out: Actual Solubility
  solubility: 0.08 mg/mL
[2]; 50° C., 14 day, mean
  Assay Results (%) 50° C., 14 day Mean: 100.9%
[2]; 50° C., 14 day, single replicates, listed as API only, HCl
  Assay Results (%) 50° C., 14 day: 101.1% and 100.7%
[2]; Initial, mean
  Assay Results (%) Initial Mean: 100.5%
[2]; Initial, single replicates, listed as API only, HCl
  Assay Results (%) Initial: 100.0% and 101.0%
